According to the supplement of paper PMC11208160:

Assay: recombinant UMI read abundance after kanamycin selection (control-corrected) (log10(CPM+1)); higher = more efficient recombination; extreme values may be limits of the assay; sequences stand for … in AGTGCAGAGAAAATCGGCCAGTTTTCTCTGCCTGCAGTCCGCATGCCGTGGGACCCCTTGGGTTCTAACCTGTTGCCTAGATTTATGCAGCGGACTGCCTTTCTCCCAAAGTGATAAACCGG…AGGTTGGTTTCACT; site = the 11-nt donor
Method in brief: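 Values, expressed as log10(CPM+1), derive from recombinant UMI counts converted to CPM, averaged across replicates and scaled by control-derived factors. Plating was with IPTG (0.07 mM) plus kanamycin or unselected, two replicates each. The screen pooled donor and donor-binding-loop pairs for the IS621 bridge recombinase in Escherichia coli.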
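Further: IS621 bridge recombinase in Escherichia coli cells against a fixed T5 target plasmid.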

Row | Sequence | recombinant UMI read abundance (log10)
1 | CCGGGGCCATGGACCGGTTTTCCCGGTAATCCGTATTTGGT (site CCGGGGCCTAC) | 0.0146
2 | CCGGGTCCATGGACCGGTTTTCCCGGTAATCCGTATTTGCA (site CCAGGTCCTTG) | 0
3 | CCGGGTCCATGGACCGGTTTTCCCGGTAATCCGTATTTGCA (site CCCGGTCCTTG) | 0
4 | CCGGGTCCATGGACCGGTTTTCCCGGTAATCCGTATTTGCA (site CCGGGTCCTTG) | 0.00309
5 | CCGGGTCCATGGACCGGTTTTCCCGGTAATCCGTATTTGCA (site CCTGGTCCTTG) | 0.0157
6 | CCGGTAACATGGACCGGTTTTCCCGGTAATCCGTATTTGCG (site CCGGTAACTCG) | 0.686
7 | CCGTAACCATGGACCGGTTTTCCCGGTAATCCGTATTTGGT (site CCGTAACCTAC) | 0
8 | CCGTAGCCATGGACCGGTTTTCCCGGTAATCCGTATTTGCC (site CCATAGCCTGG) | 0
9 | CCGTAGCCATGGACCGGTTTTCCCGGTAATCCGTATTTGCC (site CCCTAGCCTGG) | 0
10 | CCGTAGCCATGGACCGGTTTTCCCGGTAATCCGTATTTGCC (site CCGTAGCCTGG) | 0
11 | CCGTAGCCATGGACCGGTTTTCCCGGTAATCCGTATTTGCC (site CCTTAGCCTGG) | 0
12 | CCGTATACATGGACCGGTTTTCCCGGTAATCCGTATTTGCT (site CCGTATACTAG) | 1.24
13 | CCGTATACATGGACCGGTTTTCCCGGTAATCCGTATTTGCT (site CCGTCTACTAG) | 0
14 | CCGTATACATGGACCGGTTTTCCCGGTAATCCGTATTTGCT (site CCGTGTACTAG) | 0
15 | CCGTATACATGGACCGGTTTTCCCGGTAATCCGTATTTGCT (site CCGTTTACTAG) | 0
16 | CCGTATGCATGGACCGGTTTTCCCGGTAATCCGTATTTGAA (site CCGTATGCTTT) | 1.14
17 | CCGTCCCCATGGACCGGTTTTCCCGGTAATCCGTATTTGCT (site CCGTCCCCTAG) | 0.00559
18 | CCGTCGACATGGACCGGTTTTCCCGGTAATCCGTATTTGGG (site CAGTCGACTCC) | 0.01
19 | CCGTCGACATGGACCGGTTTTCCCGGTAATCCGTATTTGGG (site CCGTCGACTCC) | 0.0232

Row | Sequence | recombinant UMI read abundance (log10)
20 | CCGTCGACATGGACCGGTTTTCCCGGTAATCCGTATTTGGG (site CGGTCGACTCC) | 0.0251
21 | CCGTCGACATGGACCGGTTTTCCCGGTAATCCGTATTTGGG (site CTGTCGACTCC) | 0
22 | CCGTTAACATGGACCGGTTTTCCCGGTAATCCGTATTTGCT (site CCGTTAACTAG) | 2.18
23 | CCGTTAACATGGACCGGTTTTCCCGGTAATCCGTATTTGCT (site CCGTTCACTAG) | 0
24 | CCGTTAACATGGACCGGTTTTCCCGGTAATCCGTATTTGCT (site CCGTTGACTAG) | 0.00307
25 | CCGTTAACATGGACCGGTTTTCCCGGTAATCCGTATTTGCT (site CCGTTTACTAG) | 0
26 | CCGTTAGCATGGACCGGTTTTCCCGGTAATCCGTATTTGTA (site CCGTTAGCTAA) | 0.0181
27 | CCGTTAGCATGGACCGGTTTTCCCGGTAATCCGTATTTGTA (site CCGTTAGCTCA) | 0.00671
28 | CCGTTAGCATGGACCGGTTTTCCCGGTAATCCGTATTTGTA (site CCGTTAGCTGA) | 0
29 | CCGTTAGCATGGACCGGTTTTCCCGGTAATCCGTATTTGTA (site CCGTTAGCTTA) | 0.601
30 | CCGTTAGCATGGACCGGTTTTCCCGGTAATCCGTATTTGTC (site CCGTTAGCTAA) | 0.0291
31 | CCGTTAGCATGGACCGGTTTTCCCGGTAATCCGTATTTGTC (site CCGTTAGCTCA) | 0.00762
32 | CCGTTAGCATGGACCGGTTTTCCCGGTAATCCGTATTTGTC (site CCGTTAGCTGA) | 1.58
33 | CCGTTAGCATGGACCGGTTTTCCCGGTAATCCGTATTTGTC (site CCGTTAGCTTA) | 0.396
34 | CCGTTAGCATGGACCGGTTTTCCCGGTAATCCGTATTTGTT (site CCGTTAGCTAA) | 1.02
35 | CCGTTAGCATGGACCGGTTTTCCCGGTAATCCGTATTTGTT (site CCGTTAGCTCA) | 0.00936
36 | CCGTTAGCATGGACCGGTTTTCCCGGTAATCCGTATTTGTT (site CCGTTAGCTGA) | 0
37 | CCGTTAGCATGGACCGGTTTTCCCGGTAATCCGTATTTGTT (site CCGTTAGCTTA) | 0.00339
